From patent US10604526B2, “Chemokine receptor modulators and uses thereof” (RAPT THERAPEUTICS, INC., priority 2016, dated 2020)

The compounds below were run against T1, hCCR4 (Homo sapiens, UniProt P51679) (assay: Calcium flux assay). Details: Chem5-hCCR4 cells, CCL22 at EC80 of 1.5 nM, FLIPR Calcium 6 dye; read-out: Potency (IC50).
T1 sequence (P51679 1-360): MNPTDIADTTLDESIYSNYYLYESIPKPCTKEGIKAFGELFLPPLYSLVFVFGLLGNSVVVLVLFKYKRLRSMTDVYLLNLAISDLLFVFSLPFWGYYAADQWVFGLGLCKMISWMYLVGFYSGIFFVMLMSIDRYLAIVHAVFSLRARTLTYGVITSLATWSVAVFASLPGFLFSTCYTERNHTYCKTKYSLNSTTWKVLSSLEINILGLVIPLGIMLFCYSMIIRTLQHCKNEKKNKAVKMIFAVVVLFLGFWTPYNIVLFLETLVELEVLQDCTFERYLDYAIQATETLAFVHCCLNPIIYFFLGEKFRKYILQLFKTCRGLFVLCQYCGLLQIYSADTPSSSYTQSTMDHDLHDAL
Assay type: cell-based
Protocol: Calcium Flux Assay. Compounds were evaluated in a calcium flux assay substantially performed as follows. Chem5-hCCR4 cells (EMD Millipore, Hayward, Calif.; HTS009C) were cultured under standard conditions and frozen in aliquots of 10×10^6 cells/mL. The day prior to compound testing, a vial was rapidly thawed and pipetted into 20 mL media (DMEM+10% FBS+1% Pen-Strep+1% L-glutamine). Cells were harvested by centrifugation and re-suspended in fresh culture medium. 25 μL of cell suspension was seeded into 384-well plates (Corning, Tewksbury, Mass.; CellBind with black wall/clear bottom). The plates were centrifuged at 300 g for 10 seconds and incubated overnight at 37° C. and 5% CO2. The day of compound testing, media was removed from the plates and 25 μL serum free media was added to each well. Plates were returned to the incubator for 2 h. 25 μL assay buffer (Hank's balanced salt solution+20 mM HEPES pH 7.4) containing FLIPR Calcium 6 dye (Molecular Devices, Sunnyvale, Calif.; # R8191) and probenecid (2.5 mM) was added to each well and incubated at 37° C. and 5% CO2 for 2 h. Compounds in DMSO were added to the plates using an HP D300e digital dispenser, and all wells were normalized to contain 0.25 μL (0.5%) DMSO. Plates were incubated for 1 hour at 37° C. and 5% CO2. CCL22 (Peprotech; Rockyhill, N.J.) was diluted in assay buffer containing 0.1% BSA to 7.5 nM (corresponding to 5×EC80 of 1.5 nM).
Assay plates and working solution of CCL22 were transferred to the FlexStation plate reader (Molecular Devices) at 37° C. for 5 min of equilibration. Fluorescence recordings at 485 excitation/525 emission were performed at 2.5 second intervals. At t=16 seconds, 12.5 μL of CCL22 solution was added to each well and reads continued for 30 seconds at 2.5 second intervals. The minimum fluorescence (Fmin) was calculated by averaging the reads prior to ligand addition and the change in fluorescence (ΔF) was calculated by subtracting the Fmin from the average of the reads following ligand addition. The response ΔF/Fmin was plotted as a function of the compound concentration and the IC50 values were determined by non-linear regression analysis using a 4-parameter fit in either PRISM software (GraphPad; La Jolla, Calif.) or Dotmatics Browser.
Compound C[C@H](c1ccc(Cl)cc1Cl)n1nc(C#N)c2ncc(N3CC(C4CCCN(CCCC(C)(C)O)C4)C3)nc21 (mixture of isomers) [Example 56, 1-((R)-1-(2,4-dichlorophenyl)ethyl)-6-(3-((S)-1-(4-hydroxy-4-methylpentyl)piperidin-3-yl)azetidin-1-yl)-1H-pyrazolo[3,4-b]pyrazine-3-carbonitrile and 1-((R)-1-(2,4-dichlorophenyl)ethyl)-6-(3-((R)-1-(4-hydroxy-4-methylpentyl)piperidin-3-yl)azetidin-1-yl)-1H-pyrazolo[3,4-b]pyrazine-3-carbonitrile] has an IC50 of less than 100 nM. For CNS(=O)(=O)CCN1CCCC(C2CN(c3cnc4c(C#N)nn([C@H](C)c5ccc(Cl)cc5Cl)c4n3)C2)C1 (mixture of isomers) [Example 57, 2-(S)-3-(1-(3-cyano-1-((R)-1-(2,4-dichlorophenyl)ethyl)-1H-pyrazolo[3,4-b]pyrazin-6-yl)azetidin-3-yl)piperidin-1-yl)-N-methylethane-1-sulfonamide and 2-((R)-3-(1-(3-cyano-1-((R)-1-(2,4-dichlorophenyl)ethyl)-1H-pyrazolo[3,4-b]pyrazin-6-yl)azetidin-3-yl)piperidin-1-yl)-N-methylethane-1-sulfonamide], the IC50 was less than 100 nM. Work on C[C@H](c1ccc(Cl)cc1Cl)n1nc(C#N)c2ncc(N3CC(C4CCCN(CCS(=O)(=O)N5CCOCC5)C4)C3)nc21 (mixture of isomers) [Example 58, 1-((R)-1-(2,4-dichlorophenyl)ethyl)-6-(3-((S)-1-(2-(morpholinosulfonyl)ethyl)piperidin-3-yl)azetidin-1-yl)-1H-pyrazolo[3,4-b]pyrazine-3-carbonitrile and 1-((R)-1-(2,4-dichlorophenyl)ethyl)-6-(3-((R)-1-(2-(morpholinosulfonyl)ethyl)piperidin-3-yl)azetidin-1-yl)-1H-pyrazolo[3,4-b]pyrazine-3-carbonitrile] yielded an IC50 of 100 to 500 nM. In the case of C[C@H](c1ccc(Cl)cc1Cl)n1nc(C#N)c2ncc(N3CC(C4CCCN(Cc5cc[nH]n5)C4)C3)nc21 (mixture of isomers) [Example 59, 6-(3-((S)-1-((1H-pyrazol-3-yl)methyl)piperidin-3-yl)azetidin-1-yl)-1-((R)-1-(2,4-dichlorophenyl)ethyl)-1H-pyrazolo[3,4-b]pyrazine-3-carbonitrile and 6-(3-((R)-1-((1H-pyrazol-3-yl)methyl)piperidin-3-yl)azetidin-1-yl)-1-((R)-1-(2,4-dichlorophenyl)ethyl)-1H-pyrazolo[3,4-b]pyrazine-3-carbonitrile], the IC50 is reported as less than 100 nM. Compound C[C@H](c1ccc(Cl)cc1Cl)n1nc(C#N)c2ncc(N3CC(C4CCCN(Cc5c[nH]cn5)C4)C3)nc21 (mixture of isomers) [Example 60, 6-(3-((S)-1-(1H-imidazol-4-yl)methyl)piperidin-3-yl)azetidin-1-yl)-1-((R)-1-(2,4-dichlorophenyl)ethyl)-1H-pyrazolo[3,4-b]pyrazine-3-carbonitrile and 6-(3-((R)-1-((1H-imidazol-4-yl)methyl)piperidin-3-yl)azetidin-1-yl)-1-((R)-1-(2,4-dichlorophenyl)ethyl)-1H-pyrazolo[3,4-b]pyrazine-3-carbonitrile] has an IC50 of less than 100 nM. For C[C@H](c1ccc(Cl)cc1Cl)n1nc(C#N)c2ncc(N3CC(C4CCCN(C5CCS(=O)(=O)CC5)C4)C3)nc21 (mixture of isomers) [Example 61, 1-((R)-1-(2,4-dichlorophenyl)ethyl)-6-(3-((R)-1-(1,1-dioxidotetrahydro-2H-thiopyran-4-yl)piperidin-3-yl)azetidin-1-yl)-1H-pyrazolo[3,4-b]pyrazine-3-carbonitrile and 1-((R)-1-(2,4-dichlorophenyl)ethyl)-6-(3-((S)-1-(1,1-dioxidotetrahydro-2H-thiopyran-4-yl)piperidin-3-yl)azetidin-1-yl)-1H-pyrazolo[3,4-b]pyrazine-3-carbonitrile], the IC50 was less than 100 nM. Work on C[C@H](c1ccc(Cl)cc1Cl)n1nc(C#N)c2ncc(N3CC(C4CCCN(C5CCOCC5)C4)C3)nc21 (mixture of isomers) [Example 62, 1-((R)-1-(2,4-dichlorophenyl)ethyl)-6-(3-((R)-1-(tetrahydro-2H-pyran-4-yl)piperidin-3-yl)azetidin-1-yl)-1H-pyrazolo[3,4-b]pyrazine-3-carbonitrile and 1-((R)-1-(2,4-dichlorophenyl)ethyl)-6-(3-((S)-1-(tetrahydro-2H-pyran-4-yl)piperidin-3-yl)azetidin-1-yl)-1H-pyrazolo[3,4-b]pyrazine-3-carbonitrile] yielded an IC50 of less than 100 nM. CC(=O)NCCN1CCCC(C2CN(c3cnc4c(C)nn([C@H](C)c5ccc(Cl)cc5Cl)c4n3)C2)C1 (mixture of isomers) [Example 63, N-(2-((R)-3-(1-(1-((R)-1-(2,4-dichlorophenyl)ethyl)-3-methyl-1H-pyrazolo[3,4-b]pyrazin-6-yl)azetidin-3-yl)piperidin-1-yl)ethyl)acetamide and N-(2-((S)-3-(1-(1-((R)-1-(2,4-dichlorophenyl)ethyl)-3-methyl-1H-pyrazolo[3,4-b]pyrazin-6-yl)azetidin-3-yl)piperidin-1-yl)ethyl)acetamide] gave an IC50 of less than 100 nM. For Cc1nn([C@H](C)c2ccc(Cl)cc2Cl)c2nc(N3CC(C4CCCN(CCNS(C)(=O)=O)C4)C3)cnc12 (mixture of isomers) [Example 64, N-[2-[(R)-3-[1-[1-[(1R)-1-(2,4-dichlorophenyl)ethyl]-3-methyl-pyrazolo[3,4-b]pyrazin-6-yl]azetidin-3-yl]-1-piperidyl]ethyl]methanesulfonamide and N-[2-[(S)-3-[1-[1-[(1R)-1-(2,4-dichlorophenyl)ethyl]-3-methyl-pyrazolo[3,4-b]pyrazin-6-yl]azetidin-3-yl]-1-piperidyl]ethyl]methanesulfonamide], the IC50 was less than 100 nM. In the case of Cc1nn([C@H](C)c2ccc(Cl)cc2Cl)c2nc(N3CC(C4CCCN(CCNS(=O)(=O)C(C)C)C4)C3)cnc12 (mixture of isomers) [Example 65, N-(2-((R)-3-(1-(1-((R)-1-(2,4-dichlorophenyl)ethyl)-3-methyl-1H-pyrazolo[3,4-b]pyrazin-6-yl)azetidin-3-yl)piperidin-1-yl)ethyl)propane-2-sulfonamide and N-(2-((S)-3-(1-(1-((R)-1-(2,4-dichlorophenyl)ethyl)-3-methyl-1H-pyrazolo[3,4-b]pyrazin-6-yl)azetidin-3-yl)piperidin-1-yl)ethyl)propane-2-sulfonamide], the IC50 is reported as less than 100 nM. COC(=O)NCCN1CCCC(C2CN(c3cnc4c(C)nn([C@H](C)c5ccc(Cl)cc5Cl)c4n3)C2)C1 (mixture of isomers) [Example 67, Methyl (2-((R)-3-(1-(1-((R)-1-(2,4-dichlorophenyl)ethyl)-3-methyl-1H-pyrazolo[3,4-b]pyrazin-6-yl)azetidin-3-yl)piperidin-1-yl)ethyl)carbamate and methyl (2-((S)-3-(1-(1-((R)-1-(2,4-dichlorophenyl)ethyl)-3-methyl-1H-pyrazolo[3,4-b]pyrazin-6-yl)azetidin-3-yl)piperidin-1-yl)ethyl)carbamate] gave an IC50 of less than 100 nM. With Cc1nn([C@H](C)c2ccc(Cl)cc2Cl)c2nc(N3CC([C@@H]4CCCN(CC(=O)O)C4)C3)cnc12 (single isomer, unassigned) [Example 2] the IC50 was greater than 500 nM. Work on Cc1nn([C@H](C)c2ccc(Cl)cc2Cl)c2nc(N3CC([C@H]4CCCN(CC(=O)O)C4)C3)cnc12 (single isomer, unassigned) [Example 3] yielded an IC50 greater than 500 nM. Compound Cc1nn([C@H](C)c2ccc(Cl)cc2Cl)c2nc(N3CC([C@@H]4CCCN(CCS(N)(=O)=O)C4)C3)cnc12 (single isomer, unassigned) [Example 5] has an IC50 greater than 500 nM. Compound Cc1nn([C@H](C)c2ccc(Cl)cc2Cl)c2nc(N3CC([C@H]4CCCN(CCS(N)(=O)=O)C4)C3)cnc12 (single isomer, unassigned) [Example 6] has an IC50 of less than 100 nM. Work on Cc1nn([C@H](C)c2ccc(Cl)cc2Cl)c2nc(N3CC([C@H]4CCCN(CCC(=O)O)C4)C3)cnc12 (single isomer, unassigned) [Example 8] yielded an IC50 of less than 100 nM. With Cc1nn([C@H](C)c2ccc(Cl)cc2Cl)c2nc(N3CC([C@@H]4CCCN(CCC(=O)O)C4)C3)cnc12 (single isomer, unassigned) [Example 9] the IC50 was greater than 500 nM.
